The source of these data is article PMC6776549, “Gingival solitary chemosensory cells are immune sentinels for periodontitis” (Nature Communications, 2019).

The target in assay [1] is T1, Tas2r105 (Mus musculus, UniProt Q9JKT4).
T1 construct: coding region amplified from WT mouse taste bud cDNA; N-terminal tag of first 45 residues of rat somatostatin receptor 3; pcDNA3.1/Zeo(+); transient in HEK293 (PEAKrapid) with chimeric reporter G protein Galpha16gust44
T1 sequence (Q9JKT4 1-300): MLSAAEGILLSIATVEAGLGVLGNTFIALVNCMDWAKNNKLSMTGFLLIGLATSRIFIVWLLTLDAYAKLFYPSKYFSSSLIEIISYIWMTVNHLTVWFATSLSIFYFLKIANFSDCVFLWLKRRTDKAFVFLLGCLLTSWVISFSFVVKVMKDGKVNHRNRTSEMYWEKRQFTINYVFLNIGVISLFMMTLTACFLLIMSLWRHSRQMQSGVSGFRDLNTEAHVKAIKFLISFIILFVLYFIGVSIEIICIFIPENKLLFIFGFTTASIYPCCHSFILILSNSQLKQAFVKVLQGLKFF
The assay is described as follows: calcium mobilization in transfected HEK293. Conditions: agonist, Gα16gust44 co-expressed. Format: cell-based.

For assay [2], the target named is T1, Tas2r105. The assay is described as follows: calcium mobilization in transfected HEK293, fluorescence dose-response. The assay is classed as cell-based.

Take `CCCCCCCC(=O)N[C@H]1CCOC1=O` [C8-HSL]: in assay [1] (synthetic compound), the “calcium mobilization in transfected HEK293” value was “two synthetic HSLs: 3-oxo-C12-HSL and C8-HSL”.

For `CCCCCCCCCC(=O)CC(=O)N[C@H]1CCOC1=O` [LasI], the EC50 in assay [2] worked out at 8.9 µM.

In the case of `CC[N+](CC)(CC(=O)Nc1c(C)cccc1C)Cc1ccccc1` [denatonium benzoate], in assay [1], the “calcium mobilization in transfected HEK293” value was “Tas2r105 was also activated by the bitter compounds denatonium benzoate (Den)”.
